From patent EP4745137A1 (Gluetacs Therapeutics (Shanghai) Co., Ltd., priority 2023, dated 2025)

Legend:
Format in all cases: cell-based
Details in all cases: 24 hours of compound treatment
WEE1 = target: T1, WEE1 (Homo sapiens, UniProt P30291+Q96SW2); experiment: Western-blot assay of substrate protein degradation in hPBMCs, WEE1
T1 construct: endogenous in cells; host or cells: hPBMCs (Milecell Biotechnologies)
Description: (§1) After 24 hours of compounds treatment, cells were harvested and lysed in RIPA protein lysate containing protease inhibitors on ice for 30 min, followed by centrifugation. The supernatant was aspirated as the extracted total cell protein. The protein concentration of the supernatant was determined using the conventional BCA (Bicinchoninic Acid) assay. • (2) To the collected supernatant, 5X SDS sample loading buffer was added, followed by denaturation at 95°C for 5 minutes. The denatured samples were then separated by SDS-PAGE electrophoresis on a polyacrylamide gel, transferred onto a nitrocellulose membrane (0.45 µm NC membrane), blocked with blocking buffer at room temperature for 1 hour, and subjected to antibody incubation and development procedures according to the antibody manufacturer's instructions (Cell Signaling Technology Company). […]
(§2) Target protein remaining (%) refers to the percentage of target protein remaining in cells after treatment with protein degrader compounds.
(§3) Calculation method for target protein remaining (%): Use ImageJ software to measure grayscale values of Western blot bands from drug (protein degrader)-treated samples. The grayscale value of drug-treated bands is divided by that of internal control protein bands, and the resulting quotient is normalized to obtain the relative percentage of remaining target protein after protein degrader treatment. Target protein degradation rate(%) = 1−target protein remaining(%). [formula]

IKZF3 = target: T2, IKZF3 (Homo sapiens, UniProt Q96SW2+Q9UKT9); experiment: Western-blot assay of substrate protein degradation in hPBMCs, IKZF3
T2 construct: endogenous in cells; host or cells: hPBMCs (Milecell Biotechnologies)
Description: as §1, §2, §3

IKZF1 = target: T3, IKZF1 (Homo sapiens, UniProt Q13422+Q96SW2); experiment: Western-blot assay of substrate protein degradation in hPBMCs, IKZF1
T3 construct: endogenous in cells; host or cells: hPBMCs (Milecell Biotechnologies)
Description: as §1, §2, §3

CK1α = target: T4, CK1α (Homo sapiens, UniProt P48729+Q96SW2); experiment: Western-blot assay of substrate protein degradation in hPBMCs, CK1α
T4 construct: endogenous in cells; host or cells: hPBMCs (Milecell Biotechnologies)
Description: as §1, §2, §3

IKZF2 = target: T5, IKZF2 (Homo sapiens, UniProt Q96SW2+Q9UKS7); experiment: Western-blot assay of substrate protein degradation in hPBMCs, IKZF2
T5 construct: endogenous in cells; host or cells: hPBMCs (Milecell Biotechnologies)
Description: as §1, §2, §3

GSPT1 = target: T6, GSPT1 (Homo sapiens, UniProt P15170+Q96SW2); experiment: Western-blot assay of substrate protein degradation in hPBMCs, GSPT1
T6 construct: endogenous in cells; host or cells: hPBMCs (Milecell Biotechnologies)
Description: as §1, §2, §3

[1] = 50 nM and 500 nM tested (concentration behind the class not stated)
[2] = compounds tested at 50 nM and 500 nM (concentration of the table not stated)

T2 sequence (Q9UKT9 whole entry): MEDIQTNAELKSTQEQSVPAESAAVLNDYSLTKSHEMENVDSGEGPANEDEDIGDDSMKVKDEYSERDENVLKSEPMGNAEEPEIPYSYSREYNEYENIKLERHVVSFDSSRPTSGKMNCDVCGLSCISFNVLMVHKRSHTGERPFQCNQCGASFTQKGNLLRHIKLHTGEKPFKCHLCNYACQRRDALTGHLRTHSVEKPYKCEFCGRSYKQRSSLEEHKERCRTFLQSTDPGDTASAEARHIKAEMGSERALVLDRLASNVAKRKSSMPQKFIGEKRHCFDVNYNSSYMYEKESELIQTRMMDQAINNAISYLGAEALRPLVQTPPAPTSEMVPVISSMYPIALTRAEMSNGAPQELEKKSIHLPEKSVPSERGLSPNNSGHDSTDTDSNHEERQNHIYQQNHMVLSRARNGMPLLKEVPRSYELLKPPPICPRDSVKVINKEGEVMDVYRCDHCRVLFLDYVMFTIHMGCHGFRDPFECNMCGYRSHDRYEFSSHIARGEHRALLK
T2 sequence (Q96SW2 whole entry): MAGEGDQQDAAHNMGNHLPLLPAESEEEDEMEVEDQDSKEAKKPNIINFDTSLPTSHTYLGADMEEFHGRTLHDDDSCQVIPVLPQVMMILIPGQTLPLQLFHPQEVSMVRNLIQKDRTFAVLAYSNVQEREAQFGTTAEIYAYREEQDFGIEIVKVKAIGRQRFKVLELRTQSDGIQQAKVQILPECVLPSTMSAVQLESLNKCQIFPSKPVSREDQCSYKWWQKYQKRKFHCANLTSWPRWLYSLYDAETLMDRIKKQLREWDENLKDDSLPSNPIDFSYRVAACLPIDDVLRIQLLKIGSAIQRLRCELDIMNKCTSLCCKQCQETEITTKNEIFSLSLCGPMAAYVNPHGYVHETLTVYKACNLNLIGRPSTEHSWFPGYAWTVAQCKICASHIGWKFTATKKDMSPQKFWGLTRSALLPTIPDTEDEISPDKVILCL
T2 sequence (Q16531 whole entry partner): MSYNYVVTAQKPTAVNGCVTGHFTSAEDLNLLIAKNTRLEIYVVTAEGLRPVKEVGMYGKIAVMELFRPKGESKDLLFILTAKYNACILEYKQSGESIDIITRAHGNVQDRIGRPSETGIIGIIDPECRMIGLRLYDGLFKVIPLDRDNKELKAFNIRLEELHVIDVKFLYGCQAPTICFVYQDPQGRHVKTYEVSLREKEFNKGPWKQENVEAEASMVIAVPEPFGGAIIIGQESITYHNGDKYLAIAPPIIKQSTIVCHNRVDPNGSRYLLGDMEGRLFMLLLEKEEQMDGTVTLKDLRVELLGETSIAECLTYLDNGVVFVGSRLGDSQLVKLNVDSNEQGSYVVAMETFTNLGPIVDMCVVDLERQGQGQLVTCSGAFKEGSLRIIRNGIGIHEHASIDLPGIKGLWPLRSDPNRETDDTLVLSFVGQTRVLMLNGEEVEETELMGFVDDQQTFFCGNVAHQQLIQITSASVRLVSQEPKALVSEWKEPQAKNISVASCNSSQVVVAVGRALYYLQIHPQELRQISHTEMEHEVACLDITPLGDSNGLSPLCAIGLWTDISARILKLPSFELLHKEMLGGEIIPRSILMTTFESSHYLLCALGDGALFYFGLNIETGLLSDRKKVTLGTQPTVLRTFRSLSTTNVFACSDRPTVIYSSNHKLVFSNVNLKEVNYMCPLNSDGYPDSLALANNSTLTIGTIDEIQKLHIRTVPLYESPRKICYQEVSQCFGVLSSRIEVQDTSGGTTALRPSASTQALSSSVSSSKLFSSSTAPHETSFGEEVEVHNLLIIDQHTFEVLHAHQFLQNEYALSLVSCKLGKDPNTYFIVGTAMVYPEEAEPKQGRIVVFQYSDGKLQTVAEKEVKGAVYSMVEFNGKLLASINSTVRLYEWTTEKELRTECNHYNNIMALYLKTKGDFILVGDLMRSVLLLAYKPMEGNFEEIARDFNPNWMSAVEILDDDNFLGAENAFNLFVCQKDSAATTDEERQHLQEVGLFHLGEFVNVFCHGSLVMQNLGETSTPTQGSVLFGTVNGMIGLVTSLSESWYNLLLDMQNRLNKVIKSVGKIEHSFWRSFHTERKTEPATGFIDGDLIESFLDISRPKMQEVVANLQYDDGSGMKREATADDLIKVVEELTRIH
T3 sequence (Q13422 whole entry): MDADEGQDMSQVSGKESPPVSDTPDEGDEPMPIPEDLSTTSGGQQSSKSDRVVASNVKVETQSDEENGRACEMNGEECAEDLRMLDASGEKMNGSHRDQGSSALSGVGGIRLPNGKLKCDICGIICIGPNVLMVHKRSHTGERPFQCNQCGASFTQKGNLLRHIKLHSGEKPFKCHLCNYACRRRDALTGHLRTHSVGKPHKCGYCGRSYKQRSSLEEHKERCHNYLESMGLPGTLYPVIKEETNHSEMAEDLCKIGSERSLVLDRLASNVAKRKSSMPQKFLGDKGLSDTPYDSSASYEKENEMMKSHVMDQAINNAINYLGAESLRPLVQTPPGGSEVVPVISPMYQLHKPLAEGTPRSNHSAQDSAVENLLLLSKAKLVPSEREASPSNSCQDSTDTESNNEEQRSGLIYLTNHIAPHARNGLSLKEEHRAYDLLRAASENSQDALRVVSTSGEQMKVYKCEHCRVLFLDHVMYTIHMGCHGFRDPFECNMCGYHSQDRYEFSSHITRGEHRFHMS
T3 sequence (Q96SW2 whole entry): as the sequence (Q96SW2 whole entry) above
T3 sequence (Q16531 whole entry partner): as the sequence (Q16531 whole entry partner) above
T5 sequence (Q9UKS7 whole entry): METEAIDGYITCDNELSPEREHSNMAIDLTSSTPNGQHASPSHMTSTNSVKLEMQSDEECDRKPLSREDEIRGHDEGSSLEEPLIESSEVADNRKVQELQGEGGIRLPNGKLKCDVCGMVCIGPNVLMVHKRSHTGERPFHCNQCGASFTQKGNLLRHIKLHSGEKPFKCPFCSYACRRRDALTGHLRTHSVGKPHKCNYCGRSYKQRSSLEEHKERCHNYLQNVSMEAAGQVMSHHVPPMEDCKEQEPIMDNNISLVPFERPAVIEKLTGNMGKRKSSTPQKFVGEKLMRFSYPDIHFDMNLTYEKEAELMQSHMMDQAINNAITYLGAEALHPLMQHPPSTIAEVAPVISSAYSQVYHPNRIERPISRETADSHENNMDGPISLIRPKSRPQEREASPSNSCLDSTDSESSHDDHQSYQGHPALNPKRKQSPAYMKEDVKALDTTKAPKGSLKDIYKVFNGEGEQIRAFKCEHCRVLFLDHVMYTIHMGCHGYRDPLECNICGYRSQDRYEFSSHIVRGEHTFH
T5 sequence (Q96SW2 whole entry): as the sequence (Q96SW2 whole entry) above
T5 sequence (Q16531 whole entry partner): as the sequence (Q16531 whole entry partner) above
T6 sequence (P15170 whole entry): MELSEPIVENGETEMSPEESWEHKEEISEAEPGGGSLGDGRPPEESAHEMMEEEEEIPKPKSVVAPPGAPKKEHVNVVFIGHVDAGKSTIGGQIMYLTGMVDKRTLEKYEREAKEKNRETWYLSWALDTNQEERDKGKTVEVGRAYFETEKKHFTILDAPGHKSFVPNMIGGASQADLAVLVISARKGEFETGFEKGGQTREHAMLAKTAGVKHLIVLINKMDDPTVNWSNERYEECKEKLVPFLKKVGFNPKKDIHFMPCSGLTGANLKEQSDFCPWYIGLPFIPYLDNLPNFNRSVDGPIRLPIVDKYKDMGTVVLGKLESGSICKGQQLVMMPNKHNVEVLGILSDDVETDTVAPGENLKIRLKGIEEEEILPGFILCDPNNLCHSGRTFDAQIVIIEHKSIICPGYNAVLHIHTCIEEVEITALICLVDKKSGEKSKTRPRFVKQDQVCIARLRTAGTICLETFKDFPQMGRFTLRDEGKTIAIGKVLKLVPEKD
T6 sequence (Q96SW2 whole entry): as the sequence (Q96SW2 whole entry) above
T6 sequence (Q16531 whole entry partner): as the sequence (Q16531 whole entry partner) above
T4 sequence (P48729 whole entry): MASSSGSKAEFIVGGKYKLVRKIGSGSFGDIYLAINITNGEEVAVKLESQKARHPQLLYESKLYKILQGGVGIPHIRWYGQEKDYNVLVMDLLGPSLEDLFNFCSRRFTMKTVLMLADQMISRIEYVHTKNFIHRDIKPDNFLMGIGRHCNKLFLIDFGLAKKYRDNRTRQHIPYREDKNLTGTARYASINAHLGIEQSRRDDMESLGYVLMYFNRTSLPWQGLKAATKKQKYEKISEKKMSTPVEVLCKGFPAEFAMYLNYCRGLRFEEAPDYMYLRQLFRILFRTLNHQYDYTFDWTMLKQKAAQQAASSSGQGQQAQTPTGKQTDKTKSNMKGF
T4 sequence (Q96SW2 whole entry): as the sequence (Q96SW2 whole entry) above
T4 sequence (Q16531 whole entry partner): as the sequence (Q16531 whole entry partner) above

SMILES | Weel substrate protein remaining % (WEE1; [1]) | IKZF3 substrate protein remaining % (IKZF3; [1]) | IKZF 1 substrate protein remaining % (IKZF1; [1]) | CK1a substrate protein remaining % (CK1α; [1]) | IKZF2 substrate protein remaining % (IKZF2; [1]) | GSPT1 substrate protein remaining % (GSPT1; [1]) | Weel substrate protein remaining % (WEE1; [2]) | IKZF3 substrate protein remaining % (IKZF3; [2]) | IKZF 1 substrate protein remaining % (IKZF1; [2]) | CK1a substrate protein remaining % (CK1α; [2]) | IKZF2 substrate protein remaining % (IKZF2; [2]) | GSPT1 substrate protein remaining % (GSPT1; [2])
O=C1CCC(N2C(=O)c3ccc(CN4CCC(c5cccs5)CC4)cc3C2=O)C(=O)N1 (stereo not drawn) [GT-06224, 2-(2,6-dioxopiperidin-3-yl)-5-((4-(thiophen-2-yl)piperidin-1-yl)methyl)isoindoline-1,3-dione] | A (0% ≤ substrate protein remaining % ≤ 80%) | A (0% ≤ substrate protein remaining % ≤ 80%) | A (0% ≤ substrate protein remaining % ≤ 80%) | A (0% ≤ substrate protein remaining % ≤ 80%) | B (80%< substrate protein remaining %≤ 100%) | A (0% ≤ substrate protein remaining % ≤ 80%) |  |  |  |  |  | 
O=C1CCC(N2C(=O)c3ccc(CN4CCC(N5CCCc6cc(F)ccc65)CC4)cc3C2=O)C(=O)N1 (stereo not drawn) [GT-06234, 2-(2,6-dioxopiperidin-3-yl)-5-((4-(6-fluoro-3,4-dihydroquinolin-1(2H)-yl)piperidin-1-yl)methyl)isoindoline-1,3-dione] |  |  |  |  |  |  | B (80%< substrate protein remaining %≤ 100%) | B (80%< substrate protein remaining %≤ 100%) | B (80%< substrate protein remaining %≤ 100%) | B (80%< substrate protein remaining %≤ 100%) | B (80%< substrate protein remaining %≤ 100%) | A (0% ≤ substrate protein remaining % ≤ 80%)
O=C1CCC(N2C(=O)c3ccc(CN4CCC(N5CCOc6cc(F)ccc65)CC4)cc3C2=O)C(=O)N1 (stereo not drawn) [GT-06235, 2-(2,6-dioxopiperidin-3-yl)-5-((4-(7-fluoro-2,3-dihydro-4H-benzo[b][1,4]oxazin-4-yl)piperidin-1-yl)methyl)isoindoline-1,3-dione] |  |  |  |  |  |  | B (80%< substrate protein remaining %≤ 100%) | B (80%< substrate protein remaining %≤ 100%) | B (80%< substrate protein remaining %≤ 100%) | B (80%< substrate protein remaining %≤ 100%) | B (80%< substrate protein remaining %≤ 100%) | A (0% ≤ substrate protein remaining % ≤ 80%)
O=C1CCC(N2C(=O)c3ccc(CN4CCC(N5C(=O)COc6cc(F)ccc65)CC4)cc3C2=O)C(=O)N1 (stereo not drawn) [GT-06236, 2-(2,6-dioxopiperidin-3-yl)-5-((4-(7-fluoro-3-oxo-2,3-dihydro-4H-benzo[b][1,4]oxazin-4-yl)piperidin-1-yl)methyl)isoindoline-1,3-dione] |  |  |  |  |  |  | B (80%< substrate protein remaining %≤ 100%) | B (80%< substrate protein remaining %≤ 100%) | B (80%< substrate protein remaining %≤ 100%) | B (80%< substrate protein remaining %≤ 100%) | A (0% ≤ substrate protein remaining % ≤ 80%) | A (0% ≤ substrate protein remaining % ≤ 80%)
O=C1CCC(N2C(=O)c3ccc(CN4CCC(C5CCOc6cc(F)ccc65)CC4)cc3C2=O)C(=O)N1 (stereo not drawn) [GT-06237, 2-(2,6-dioxopiperidin-3-yl)-5-((4-(7-fluorochroman-4-yl)piperidin-1-yl)methyl)isoindoline-1,3-dione] |  |  |  |  |  |  | B (80%< substrate protein remaining %≤ 100%) | B (80%< substrate protein remaining %≤ 100%) | B (80%< substrate protein remaining %≤ 100%) | B (80%< substrate protein remaining %≤ 100%) | B (80%< substrate protein remaining %≤ 100%) | A (0% ≤ substrate protein remaining % ≤ 80%)
Cc1cscc1N1CCN(Cc2ccc3c(c2)C(=O)N(C2CCC(=O)NC2=O)C3=O)CC1 (stereo not drawn) [GT-06260, 2-(2,6-dioxopiperidin-3-yl)-5-((4-(4-methylthiophen-3-yl)piperazin-1-yl)methyl)isoindoline-1,3-dione] | B (80%< substrate protein remaining %≤ 100%) | B (80%< substrate protein remaining %≤ 100%) | B (80%< substrate protein remaining %≤ 100%) | B (80%< substrate protein remaining %≤ 100%) | B (80%< substrate protein remaining %≤ 100%) | A (0% ≤ substrate protein remaining % ≤ 80%) |  |  |  |  |  | 
O=C1CCC(N2C(=O)c3ccc(CN4CC=C(c5ccsc5)CC4)cc3C2=O)C(=O)N1 (stereo not drawn) [GT-06261, 2-(2,6-dioxopiperidin-3-yl)-5-((4-(thiophen-3-yl)-3,6-dihydropyridin-1(2H)-yl)methyl)isoindoline-1,3-dione] | A (0% ≤ substrate protein remaining % ≤ 80%) | A (0% ≤ substrate protein remaining % ≤ 80%) | A (0% ≤ substrate protein remaining % ≤ 80%) | A (0% ≤ substrate protein remaining % ≤ 80%) | A (0% ≤ substrate protein remaining % ≤ 80%) | A (0% ≤ substrate protein remaining % ≤ 80%) |  |  |  |  |  | 
Cc1ccc(C2CCN(Cc3ccc4c(c3)C(=O)N(C3CCC(=O)NC3=O)C4=O)CC2)s1 (stereo not drawn) [GT-06262, 2-(2,6-dioxopiperidin-3-yl)-5-((4-(5-methylthiophen-2-yl)piperidin-1-yl)methyl)isoindoline-1,3-dione] | B (80%< substrate protein remaining %≤ 100%) | B (80%< substrate protein remaining %≤ 100%) | B (80%< substrate protein remaining %≤ 100%) | A (0% ≤ substrate protein remaining % ≤ 80%) | A (0% ≤ substrate protein remaining % ≤ 80%) | A (0% ≤ substrate protein remaining % ≤ 80%) |  |  |  |  |  | 
O=C1CCC(N2C(=O)c3ccc(CN4CCC(c5cccc6c(F)cccc56)CC4)cc3C2=O)C(=O)N1 (stereo not drawn) [GT-06263, 2-(2,6-dioxopiperidin-3-yl)-5-((4-(5-fluoronaphthalen-1-yl)piperidin-1-yl)methyl)isoindoline-1,3-dione] |  |  |  |  |  |  | B (80%< substrate protein remaining %≤ 100%) | A (0% ≤ substrate protein remaining % ≤ 80%) | B (80%< substrate protein remaining %≤ 100%) | A (0% ≤ substrate protein remaining % ≤ 80%) | B (80%< substrate protein remaining %≤ 100%) | A (0% ≤ substrate protein remaining % ≤ 80%)
O=C1CCC(N2C(=O)c3ccc(CN4CC=C(c5cccc6c(F)cccc56)CC4)cc3C2=O)C(=O)N1 (stereo not drawn) [GT-06264, 2-(2,6-dioxopiperidin-3-yl)-5-((4-(5-fluoronaphthalen-1-yl)-3,6-dihydropyridin-1(2H)-yl)methyl)isoindoline-1,3-dione] |  |  |  |  |  |  | A (0% ≤ substrate protein remaining % ≤ 80%) | A (0% ≤ substrate protein remaining % ≤ 80%) | A (0% ≤ substrate protein remaining % ≤ 80%) | A (0% ≤ substrate protein remaining % ≤ 80%) | A (0% ≤ substrate protein remaining % ≤ 80%) | A (0% ≤ substrate protein remaining % ≤ 80%)
